Assay results published in patent publication US6469006B1, “Antiviral indoleoxoacetyl piperazine derivatives” (priority 1999, dated 2002).

test system: single-round infectious HIV-1 reporter virus; assay: microbe, parasite or virus in culture; format: cell-based; settings: Human immunodeficiency virus 1, HeLa-CD4/CCR5, 72 h, read-out: % Inhibition @ 10 μM
From the text: The virus infection was quantified 3 days after infection by measuring luciferase expression from integrated viral DNA in the infected cells (Chen et al, Ref. 41).
Virus production—Human embryonic Kidney cell line, 293, propagated in Dulbecco's Modified Eagle Medium (Life Technologies, Gaithersburg, Md.) containing 10% fetal Bovine serum (FBS, Sigma, St. Louis, Mo.).
Virus infection—Human epithelial cell line, HeLa, expressing the HIV-1 receptors CD4 and CCR5 was propagated in Dulbecco's Modified Eagle Medium (Life Technologies, Gaithersburg, Md.) containing 10% fetal Bovine serum (FBS, Sigma, St. Louis, Mo.) and supplemented with 0.2 mg/ml Geneticin (Life Technologies, Gaithersburg, Md.) and 0.4 mg/ml Zeocin (Invitrogen, Carlsbad, Calif.).
Virus-Replication defective reporter virus was produced by co-transfecting human embryonic Kidney 293 cells with an HIV-1 envelope DNA expression vector and a proviral cDNA containing an envelope deletion mutation and the luciferase reporter gene inserted in place of HIV-1 nef sequences (Chen, 1994). Transfections were performed using lipofectAMINE PLUS reagent as described by the manufacturer (Life Technologies, Gaithersburg, Md.).
1. Compound was added to HeLa CD4 CCR5 cells plated in 96 well plates at a cell density of 5×10^4 cells per well in 100 ul Dulbecco's Modified Eagle Medium containing 10% fetal Bovine serum at a concentration of <20 uM.
2. 100 ul of replication defective reporter virus in Dulbecco's Modified Eagle Medium was then added to the plated cells and compound at a multiplicity of infection (MOI) of 0.01, resulting in a final volume of 200 ul per well and a final compound concentration of <10 uM.
3. Samples were harvested 72 hours after infection.
4. Viral infection was monitored by measuring luciferase expression from viral DNA in the infected cells using a luciferase reporter gene assay kit (Roche Molecular Biochemicals, Indianapolis, Ind.). Infected cell supernatants were removed and 50 ul of Dulbecco's Modified Eagle Medium (without phenol red) and 50 ul of luciferase assay reagent reconstituted as described by the manufacturer (Roche Molecular Biochemicals, Indianapolis, Ind.) was added per well. Luciferase activity was then quantified by measuring luminescence using a Wallac microbeta scintillation counter.

| Compound | inhibition at 10 µM [%] |
| --- | --- |
| C[C@@H]1CN(C(=O)c2ccccn2)CCN1C(=O)C(=O)c1c[nH]c2c(C#N)cccc12 [Example 212] | > 98 |

same assay, conditions: Table 1, Examples 35-90; HeLa CD4 CCR5 cells, luciferase reporter virus, 3 days after infection

| Compound | % Inhibition @ 10 uM [%] |
| --- | --- |
| Nc1cccc(C(=O)N2CCN(C(=O)C(=O)c3c[nH]c4ccccc34)CC2)c1 [Example 72] | 87 |
| Nc1cccc(C(=O)N2CCN(C(=O)C(=O)c3c[nH]c4c(F)ccc(F)c34)CC2)c1 [Example 73] | >98 |
| CC1CN(C(=O)c2cccc(N)c2)CCN1C(=O)C(=O)c1c[nH]c2c(F)ccc(F)c12 (centres unmarked) [Example 74] | >98 |
| CC1CN(C(=O)c2ccc(N)cc2)CCN1C(=O)C(=O)c1c[nH]c2c(F)ccc(F)c12 (centres unmarked) [Example 75] | >98 |
| CC1CN(C(=O)c2cccc(N)c2)CCN1C(=O)C(=O)c1c[nH]c2cccc(F)c12 (centres unmarked) [Example 76] | >98 |
| COc1ccc(Cl)c2[nH]cc(C(=O)C(=O)N3CCN(C(=O)c4cccc(N)c4)CC3C)c12 (centres unmarked) [Example 77] | >98 |
| COc1ccc(Cl)c2[nH]cc(C(=O)C(=O)N3CCN(C(=O)c4ccc(N)cc4)CC3C)c12 (centres unmarked) [Example 78] | >98 |
| COc1cccc2[nH]cc(C(=O)C(=O)N3CCN(C(=O)c4cccc(N)c4)CC3C)c12 (centres unmarked) [Example 79] | >98 |
| COc1ccc(F)c2c(C(=O)C(=O)N3CCN(C(=O)c4cccc(N)c4)CC3C)c[nH]c12 (centres unmarked) [Example 80] | >98 |
| COc1ccc(F)c2c(C(=O)C(=O)N3CCN(C(=O)c4ccc(N)cc4)CC3C)c[nH]c12 (centres unmarked) [Example 81] | >98 |
| CC(=O)Oc1ccccc1C(=O)N1CCN(C(=O)C(=O)c2c[nH]c3cccc(F)c23)CC1 [Example 82] | 91 |
| CC(=O)Oc1cccc(C(=O)N2CCN(C(=O)C(=O)c3c[nH]c4cccc(F)c34)CC2)c1 [Example 83] | >98 |
| CC(=O)Oc1ccc(C(=O)N2CCN(C(=O)C(=O)c3c[nH]c4cccc(F)c34)CC2)cc1 [Example 84] | 98 |
| CC(=O)Oc1ccc(C(=O)N2CCN(C(=O)C(=O)c3c[nH]c4cccc(Cl)c34)CC2)cc1 [Example 85] | 93 |
| CC(=O)Oc1cccc(C(=O)N2CCN(C(=O)C(=O)c3c[nH]c4cccc(Cl)c34)CC2)c1 [Example 86] | >98 |
| O=C(C(=O)N1CCN(C(=O)c2ccccc2O)CC1)c1c[nH]c2cccc(F)c12 [Example 87] | 86 |
| O=C(C(=O)N1CCN(C(=O)c2cccc(O)c2)CC1)c1c[nH]c2cccc(F)c12 [Example 88] | >98 |
| O=C(C(=O)N1CCN(C(=O)c2ccc(O)cc2)CC1)c1c[nH]c2cccc(F)c12 [Example 89] | 95 |

same assay, conditions: Table 4; HeLa CD4 CCR5 cells, luciferase reporter virus, 3 days after infection

| Compound | % Inhibition @ 10 μM [%] |
| --- | --- |
| CC1CN(C(=O)c2ccccn2)CCN1C(=O)C(=O)c1c[nH]c2c(F)ccc(F)c12 (centres unmarked) [Entry 196] | >98 |
| Cc1ccc(F)c2c(C(=O)C(=O)N3CCN(C(=O)c4ccccn4)CC3C)c[nH]c12 (centres unmarked) [Entry 197] | 93 |
| CC1CN(C(=O)c2ccc(Br)o2)CCN1C(=O)C(=O)c1c[nH]c2c(F)ccc(F)c12 (centres unmarked) [Entry 198] | >98 |
| COc1ccc(OC)c2c(C(=O)C(=O)N3CCN(C(=O)c4ccc(Br)o4)CC3C)c[nH]c12 (centres unmarked) [Entry 199] | >98 |
| COC(=O)c1cccc2c(C(=O)C(=O)N3CCN(C(=O)c4ccc(Br)o4)CC3C)c[nH]c12 (centres unmarked) [Entry 200] | >98 |
| CC1CN(C(=O)c2ccccn2)CCN1C(=O)C(=O)c1c[nH]c2c(F)ccc(F)c12 (centres unmarked) [Entry 201] | >98 |
| CC1CN(C(=O)c2ccccn2)CCN1C(=O)C(=O)c1c[nH]c2cccc(F)c12 (centres unmarked) [Entry 202] | >98 |
| CC1CN(C(=O)c2ccccn2)CCN1C(=O)C(=O)c1c[nH]c2cccc(Cl)c12 (centres unmarked) [Entry 203] | 80 |
| CC1CN(C(=O)c2ccccn2)CCN1C(=O)C(=O)c1c[nH]c2cccc(Br)c12 (centres unmarked) [Entry 204] | 50 |
| CC1CN(C(=O)c2ccccn2)CCN1C(=O)C(=O)c1c[nH]c2ccc(F)cc12 (centres unmarked) [Entry 205] | 61 |
| CC1CN(C(=O)c2ccccn2)CCN1C(=O)C(=O)c1c[nH]c2cc(Cl)ccc12 (centres unmarked) [Entry 206] | 88 |
| CC1CN(C(=O)c2ccccn2)CCN1C(=O)C(=O)c1c[nH]c2c(F)cccc12 (centres unmarked) [Entry 207] | >98 |
| COc1cccc2c(C(=O)C(=O)N3CCN(C(=O)c4ccccn4)C[C@H]3C)c[nH]c12 [Entry 208] | >98 |
| Cc1cccc2c(C(=O)C(=O)N3CCN(C(=O)c4ccccn4)C[C@H]3C)c[nH]c12 [Entry 209] | >98 |
| CCc1cccc2c(C(=O)C(=O)N3CCN(C(=O)c4ccccn4)C[C@H]3C)c[nH]c12 [Entry 210] | 88 |
| COc1ccc(Cl)c2[nH]cc(C(=O)C(=O)N3CCN(C(=O)c4ccccn4)C[C@H]3C)c12 [Entry 211] | >98 |
| COc1cccc2[nH]cc(C(=O)C(=O)N3CCN(C(=O)c4ccccn4)C[C@H]3C)c12 [Entry 213] | >98 |
| COc1ccc(Br)c2[nH]cc(C(=O)C(=O)N3CCN(C(=O)c4ccccn4)C[C@H]3C)c12 [Entry 214] | >98 |
| COc1ccc(F)c2c(C(=O)C(=O)N3CCN(C(=O)c4ccccn4)C[C@H]3C)c[nH]c12 [Entry 215] | >98 |
